Where two headings read alike, the source gives them in different places.
Test: Pharmacokinetic parameters (Tmax, AUClast, Cmax) of DD217 in phase II trial patients
Assay type: in vivo, human (patients undergoing knee replacement surgery)
Details: human, plasma
From the text: The design, eligibility criteria, and outcomes of the phase II clinical trial evaluating the safety and tolerability of DD217 (NCT05189002, ClinicalTrials.gov) have been described previously. Briefly, this was a multicenter, double-blind, randomized, prospective phase II study designed to determine the optimal dosing regimen and to assess the safety and efficacy of DD217 for the prevention of venous thromboembolism (VTE) in patients undergoing knee replacement surgery. Patients were randomized into one of three groups: two groups received oral DD217 at doses of 40 mg or 60 mg once daily, starting on the morning of the first postoperative day, and one group received the active comparator, dalteparin sodium. The treatment duration was 14 days.
In total, data from 52 patients who underwent knee replacement surgery were included in the analysis. Of these, 34 patients received DD217 at daily doses of 40 mg (n = 16) or 60 mg (n = 18), and 18 patients received dalteparin sodium.
To characterize the pharmacokinetic profile of DD217 in our study, three parameters were assessed: Cmax, Tmax, and AUClast.

## CC(=N)N(C)c1ccc(C(=O)Nc2ccc(C)cc2C(=O)Nc2ccc(Cl)cn2)cc1.Cl [DD217, N-(5-chloropyridin-2-yl)-5-methyl-2-[4-(N-methylacetimidamido)benzamido]benzamide hydrochloride]
im, 40 mg, CYP2C9 *1/*2, *1/*3, IM (n = 6), mean ± SD, read-out: AUClast
  AUC(0-t): 33.9 ± 36.2 ng·h/mL
im, 40 mg, CYP2C9 *1/*2, *1/*3, IM (n = 6), mean ± SD, read-out: Cmax
  Cmax: 3.72 ± 5.61 ng/mL
im, 40 mg, CYP2C9 *1/*2, *1/*3, IM (n = 6), mean ± SD, read-out: Tmax
  Tmax: 9 ± 8.17 h
im, 40 mg, CYP2C19 *1/*2, IM (n = 1), read-out: AUClast
  AUC(0-t): 48.5 ng·h/mL
im, 40 mg, CYP2C19 *1/*2, IM (n = 1), read-out: Cmax
  Cmax: 3.12 ng/mL
im, 40 mg, CYP2C19 *1/*2, IM (n = 1), read-out: Tmax
  Tmax: 4 h
im, 40 mg, CYP3A *1/*22, *1/*3, IM (n = 4), mean ± SD, read-out: AUClast
  AUC(0-t): 49 ± 48.7 ng·h/mL
im, 40 mg, CYP3A *1/*22, *1/*3, IM (n = 4), mean ± SD, read-out: Cmax
  Cmax: 6.63 ± 8.63 ng/mL
im, 40 mg, CYP3A *1/*22, *1/*3, IM (n = 4), mean ± SD, read-out: Tmax
  Tmax: 6.25 ± 3.5 h
im, 60 mg, CYP2C9 *1/*2, *1/*3, IM (n = 5), mean ± SD, read-out: AUClast
  AUC(0-t): 89.8 ± 89.3 ng·h/mL
im, 60 mg, CYP2C9 *1/*2, *1/*3, IM (n = 5), mean ± SD, read-out: Cmax
  Cmax: 9.24 ± 9.59 ng/mL
im, 60 mg, CYP2C9 *1/*2, *1/*3, IM (n = 5), mean ± SD, read-out: Tmax
  Tmax: 3.2 ± 2.17 h
im, 60 mg, CYP2C19 *1/*2, *2/*2, *2/*17, IM + PM (n = 4), mean ± SD, read-out: AUClast
  AUC(0-t): 32.3 ± 22.5 ng·h/mL
im, 60 mg, CYP2C19 *1/*2, *2/*2, *2/*17, IM + PM (n = 4), mean ± SD, read-out: Cmax
  Cmax: 3.64 ± 3.51 ng/mL
im, 60 mg, CYP2C19 *1/*2, *2/*2, *2/*17, IM + PM (n = 4), mean ± SD, read-out: Tmax
  Tmax: 9.5 ± 9.98 h
im, 60 mg, CYP3A *1/*3, IM (n = 2), mean ± SD, read-out: AUClast
  AUC(0-t): 186 ± 211 ng·h/mL
im, 60 mg, CYP3A *1/*3, IM (n = 2), mean ± SD, read-out: Cmax
  Cmax: 11.9 ± 12.7 ng/mL
im, 60 mg, CYP3A *1/*3, IM (n = 2), mean ± SD, read-out: Tmax
  Tmax: 3.5 ± 3.54 h
oral, 40 mg/day, ABCB1 rs1045642 T>C, C/C (n 5), read-out: AUClast (SD)
  AUC(0-t): 17.8 ng·h/mL
oral, 40 mg/day, ABCB1 rs1045642 T>C, C/C (n 5), read-out: Cmax (SD)
  Cmax: 2.42 ng/mL
oral, 40 mg/day, ABCB1 rs1045642 T>C, C/C (n 5), read-out: Tmax (SD)
  Tmax: 17.2 h
oral, 40 mg/day, ABCB1 rs1045642 T>C, T/C (n 7), read-out: AUClast (SD)
  AUC(0-t): 63.6 ng·h/mL
oral, 40 mg/day, ABCB1 rs1045642 T>C, T/C (n 7), read-out: Cmax (SD)
  Cmax: 8.03 ng/mL
oral, 40 mg/day, ABCB1 rs1045642 T>C, T/C (n 7), read-out: Tmax (SD)
  Tmax: 6 h
oral, 40 mg/day, ABCB1 rs1045642 T>C, T/T (n 4), read-out: AUClast (SD)
  AUC(0-t): 35.5 ng·h/mL
oral, 40 mg/day, ABCB1 rs1045642 T>C, T/T (n 4), read-out: Cmax (SD)
  Cmax: 4.63 ng/mL
oral, 40 mg/day, ABCB1 rs1045642 T>C, T/T (n 4), read-out: Tmax (SD)
  Tmax: 9.5 h
oral, 40 mg/day, ABCB1 rs1128503 T>C, C/C (n 8), read-out: AUClast (SD)
  AUC(0-t): 34.6 ng·h/mL
oral, 40 mg/day, ABCB1 rs1128503 T>C, C/C (n 8), read-out: Cmax (SD)
  Cmax: 4.84 ng/mL
oral, 40 mg/day, ABCB1 rs1128503 T>C, C/C (n 8), read-out: Tmax (SD)
  Tmax: 12.9 h
oral, 40 mg/day, ABCB1 rs1128503 T>C, C/T (n 6), read-out: AUClast (SD)
  AUC(0-t): 46.4 ng·h/mL
oral, 40 mg/day, ABCB1 rs1128503 T>C, C/T (n 6), read-out: Cmax (SD)
  Cmax: 5.24 ng/mL
oral, 40 mg/day, ABCB1 rs1128503 T>C, C/T (n 6), read-out: Tmax (SD)
  Tmax: 9.5 h
oral, 40 mg/day, ABCB1 rs1128503 T>C, T/T (n 2), read-out: AUClast (SD)
  AUC(0-t): 60.9 ng·h/mL
oral, 40 mg/day, ABCB1 rs1128503 T>C, T/T (n 2), read-out: Cmax (SD)
  Cmax: 8.35 ng/mL
oral, 40 mg/day, ABCB1 rs1128503 T>C, T/T (n 2), read-out: Tmax (SD)
  Tmax: 3 h
oral, 40 mg/day, ABCB1 rs2032582 G>T, G/G (n 8), read-out: AUClast (SD)
  AUC(0-t): 34.6 ng·h/mL
oral, 40 mg/day, ABCB1 rs2032582 G>T, G/G (n 8), read-out: Cmax (SD)
  Cmax: 4.84 ng/mL
oral, 40 mg/day, ABCB1 rs2032582 G>T, G/G (n 8), read-out: Tmax (SD)
  Tmax: 12.9 h
oral, 40 mg/day, ABCB1 rs2032582 G>T, G/T (n 6), read-out: AUClast (SD)
  AUC(0-t): 46.4 ng·h/mL
oral, 40 mg/day, ABCB1 rs2032582 G>T, G/T (n 6), read-out: Cmax (SD)
  Cmax: 5.24 ng/mL
oral, 40 mg/day, ABCB1 rs2032582 G>T, G/T (n 6), read-out: Tmax (SD)
  Tmax: 9.5 h
oral, 40 mg/day, ABCB1 rs2032582 G>T, T/T (n 2), read-out: AUClast (SD)
  AUC(0-t): 60.9 ng·h/mL
oral, 40 mg/day, ABCB1 rs2032582 G>T, T/T (n 2), read-out: Cmax (SD)
  Cmax: 8.35 ng/mL
oral, 40 mg/day, ABCB1 rs2032582 G>T, T/T (n 2), read-out: Tmax (SD)
  Tmax: 3 h
oral, 40 mg/day, ABCB1 rs4148738 C>T, C/C (n 2), read-out: AUClast (SD)
  AUC(0-t): 60.9 ng·h/mL
oral, 40 mg/day, ABCB1 rs4148738 C>T, C/C (n 2), read-out: Cmax (SD)
  Cmax: 8.35 ng/mL
oral, 40 mg/day, ABCB1 rs4148738 C>T, C/C (n 2), read-out: Tmax (SD)
  Tmax: 3 h
oral, 40 mg/day, ABCB1 rs4148738 C>T, T/C (n 6), read-out: AUClast (SD)
  AUC(0-t): 46.4 ng·h/mL
oral, 40 mg/day, ABCB1 rs4148738 C>T, T/C (n 6), read-out: Cmax (SD)
  Cmax: 5.24 ng/mL
oral, 40 mg/day, ABCB1 rs4148738 C>T, T/C (n 6), read-out: Tmax (SD)
  Tmax: 9.5 h
oral, 40 mg/day, ABCB1 rs4148738 C>T, T/T (n 8), read-out: AUClast (SD)
  AUC(0-t): 34.6 ng·h/mL
oral, 40 mg/day, ABCB1 rs4148738 C>T, T/T (n 8), read-out: Cmax (SD)
  Cmax: 4.84 ng/mL
oral, 40 mg/day, ABCB1 rs4148738 C>T, T/T (n 8), read-out: Tmax (SD)
  Tmax: 12.9 h
oral, 40 mg, CYP2C8 rs10509681 T/C (n 3), read-out: AUClast (SD)
  AUC(0-t): 46.9 ng·h/mL
oral, 40 mg, CYP2C8 rs10509681 T/C (n 3), read-out: Cmax (SD)
  Cmax: 7.06 ng/mL
oral, 40 mg, CYP2C8 rs10509681 T/C (n 3), read-out: Tmax (h, SD)
  Tmax: 16.7 h
oral, 40 mg, CYP2C8 rs10509681 T/T (n 13), read-out: AUClast (SD)
  AUC(0-t): 41.2 ng·h/mL
oral, 40 mg, CYP2C8 rs10509681 T/T (n 13), read-out: Cmax (SD)
  Cmax: 5.05 ng/mL
oral, 40 mg, CYP2C8 rs10509681 T/T (n 13), read-out: Tmax (h, SD)
  Tmax: 8.92 h
oral, 40 mg, CYP2C8 rs11572080 C/C (n 13), read-out: AUClast (SD)
  AUC(0-t): 41.2 ng·h/mL
oral, 40 mg, CYP2C8 rs11572080 C/C (n 13), read-out: Cmax (SD)
  Cmax: 5.05 ng/mL
oral, 40 mg, CYP2C8 rs11572080 C/C (n 13), read-out: Tmax (h, SD)
  Tmax: 8.92 h
oral, 40 mg, CYP2C8 rs11572080 C/T (n 3), read-out: AUClast (SD)
  AUC(0-t): 46.9 ng·h/mL
oral, 40 mg, CYP2C8 rs11572080 C/T (n 3), read-out: Cmax (SD)
  Cmax: 7.06 ng/mL
oral, 40 mg, CYP2C8 rs11572080 C/T (n 3), read-out: Tmax (h, SD)
  Tmax: 16.7 h
oral, 40 mg, CYP2C9 *1/*1, NM (n = 8), mean ± SD, read-out: AUClast
  AUC(0-t): 54.5 ± 49.4 ng·h/mL
oral, 40 mg, CYP2C9 *1/*1, NM (n = 8), mean ± SD, read-out: Cmax
  Cmax: 7.28 ± 8.71 ng/mL
oral, 40 mg, CYP2C9 *1/*1, NM (n = 8), mean ± SD, read-out: Tmax
  Tmax: 8 ± 7.15 h
oral, 40 mg, CYP2C9 *2/*3, *3/*3, PM (n = 2), mean ± SD, read-out: AUClast
  AUC(0-t): 18.6 ± 22.5 ng·h/mL
oral, 40 mg, CYP2C9 *2/*3, *3/*3, PM (n = 2), mean ± SD, read-out: Cmax
  Cmax: 3.11 ± 3.75 ng/mL
oral, 40 mg, CYP2C9 *2/*3, *3/*3, PM (n = 2), read-out: Tmax
  Tmax: 24 h
oral, 40 mg, CYP2C19 *1/*1, NM (n = 6), mean ± SD, read-out: AUClast
  AUC(0-t): 33.1 ± 48.1 ng·h/mL
oral, 40 mg, CYP2C19 *1/*1, NM (n = 6), mean ± SD, read-out: Cmax
  Cmax: 5.25 ± 8.82 ng/mL
oral, 40 mg, CYP2C19 *1/*1, NM (n = 6), mean ± SD, read-out: Tmax
  Tmax: 15.5 ± 9.95 h

From article PMC12655527, “An Investigational Study on the Role of ADME Agents’ Genetic Variation on DD217 Pharmacokinetics and Safety Profile” (Pharmaceuticals, 2025)
